Measurements taken from US11564388B2, “Supercooling methods for preservation of biological samples” (X-Therma, Inc., priority 2017, dated 2023).
“Also recorded” adds a separate entry of the source.

Legend:
[1] = Crystallographic x-ray diffraction (XRD) ice formation assay; format: physicochemical; settings: for reduction of necessary EG concentration while preventing ice formation (ice ring scores): XRD, EG 15-30% (v/v), peptoid 1 and 5 mg/mL
Protocol: In order to increase the throughput of library analysis, a crystallographic x-ray diffraction (XRD) technique was used to evaluate ice crystal formation. For these experiments, the compounds named “Compound 2,” “Compound 8,” “Compound 10,” “Compound 11,” “Compound 12,” “Compound 13,” and “Compound 58” were tested. Compound 58 is similar to Compound 12, except that an arginine amino acid has been appended to the N-terminal end.
For these experiments, EG concentrations between 15% and 30% (v/v) were used. Typically, EG, DMSO, and other cryoprotectants are used during XRD sample analysis at concentrations of 35-40% (v/v) to vitrify solutions and avoid diffraction interference from ice crystals. Concentrations of 1 and 5 mg/mL of the peptoid and peptoid-peptide compounds were used. FIGS. 3A, 3B, and 3C illustrate exemplary XRD data under conditions of complete vitrification, partial vitrification with the presence of cubic ice, and freezing ([…]), respectively. FIG. 3D provides ice rings scores for a variety of EG concentrations and two concentrations of Compounds 2, 8, and 12.
“IceRing1” and “IceRing2” refer to ice formation scores, which range between 0 (no ice formation) and 15 (large ice formation).
The sample containing Compound 12 at a concentration of 5 mg/mL (0.5% (w/v)) and EG at a concentration of 17.5% (v/v) in water was ice-free after flash freezing. […] In the figures, black spots and rings represent ice crystals.

[2] = Larger volume flash freeze, rewarming and −20° C. storage assay; format: physicochemical; settings: 22.5% EG
Protocol: In order to test the usefulness of compositions of the present invention at larger scales, experiments were performed using solution volumes that are similar to volumes used for standard egg and stem cell preservation. For these experiments, two samples, one containing 22.5% EG and buffer only, and another containing 22.5% EG and 5 mg/ml (0.5% w/v) of Compound 12 and buffer, were flash frozen in liquid nitrogen. […] The rewarming of the solutions in a 37° C. water bath led to an unexpected and beneficial result. The Compound 12 solution bypassed devitrification in less than 2 seconds upon rewarming (FIG. 6B, right), whereas chunks of ice were seen floating in the control sample (FIG. 6B, left) after 20 seconds. Condensation was seen on each of the tubes because the tubes were actually still much below room temperature.

[3] = test system: HEK 293 cells; assay: Cryopreservation assay, flash freezing in liquid nitrogen, Calcein AM viability; format: cell-based, human
Protocol: Initial cryopreservation assays were performed using very simple solutions, with and without the addition of Compound 12, in order to minimize confounding outside factors. For this first set of experiments, two sample solutions were prepared. The first sample solution contained simple buffer and ethylene glycol (EG) at a concentration of 22.5% (v/v), and the second sample solution contained simple buffer, EG (22.5% (v/v)), and 5 mg/mL (0.5% (w/v)) of Compound 12.
HEK 293 cells were grown until 70% confluent, then treated with trypsin to remove adhesion proteins and yield free floating cells. Cells were counted using a hemocytometer and sample cell concentrations were adjusted to final concentrations of 10,000 cells per microliter. Cells were then compressed into tight pellets by centrifugation, and each sample was subsequently mixed with 20 μL of one of the sample solutions. Samples were then flash frozen by immersion in liquid nitrogen, followed by rewarming in a 37° C. water bath. After the freeze-thaw process, cells were suspended in a 400× volume of culture media for recovery. The positive control sample was treated with culture media at 37° C. and not subjected to the freeze-thaw process. The negative control sample was treated with culture media only during the freeze-thaw process. After recovery, cells were stained with Calcein AM for 30 minutes and cell viability was measured using a fluorescence plate reader.
A second set of experiments was performed to evaluate the cryopreservation potential of a formulation that contained 5 mg/mL of Compound 12 plus a mixture of glycols, disaccharides, and a general buffer. Post-thaw survival following vitrification in liquid nitrogen was evaluated as described above.

[4] = test system: HEK 293 cell line; assay: Cytotoxicity assay (MTT); format: cell-based, human
Protocol: A Tecan Genesis Robotic Workstation was used to prepare solutions in 96- and 384-well plates. Solutions contained culture media, buffers, a cryoprotectant composition of the present invention (Compound 12) or DMSO. Solutions were adjusted to the desired pH. Serial dilutions were performed to obtain solutions containing various concentrations of Compound 12 and DMSO. Control experiments were performed using only culture media.
For these experiments, cells were seeded at low density (i.e., 10% confluence), exposed to solutions containing Compound 12 or DMSO, and placed in a 37° C. incubator. The cells were allowed to grow until control cells that were treated only with empty vehicle approached 70% confluence (typically about 3 to 5 days). Assessment for compound cytotoxicity was via MTT assay.

[5] = MilliQ water, slow cooled, −20° C., one hour; peptoid 9 mM, EG 160 mM
Protocol: In this experiment, four water-based samples were prepared in capillary tubes containing MilliQ purified water. One sample contained only water, and another sample contained 160 mM ethylene glycol (EG). The other two samples each contained a peptoid polymer at 9 mM. One of the peptoid polymer samples contained the peptoid polymer called “Compound 1,” while the other sample contained the peptoid polymer called “Compound 10.” The sequences of the peptoid polymers are as follows:
After sample preparation, all samples were slow cooled and incubated at −20° C. on a Peltier cooled plate. After one hour, samples were removed and immediately photographed using a digital camera attached to a 180× Stereo Zoom microscope (FIG. 2A).

## CCC(C)NCC(=O)N(CC(=O)N(CC(=O)N(CC(=O)N(CC(=O)N(CC(=O)N(CC(=O)N(CC(=O)N(CC(=O)N(CC(N)=O)CC(C)O)C(C)CC)C(C)CC)C(C)CC)CC(C)O)CC(C)O)CC(C)O)C(C)CC)C(C)CC (stereo not drawn) [Compound 2, Nsb-Nsb-Nsb-Nhp-Nhp-Nhp-Nsb-Nsb-Nsb-Nhp]
[1]
  reduction of necessary EG concentration while preventing ice formation (ice ring scores): significantly reduced necessary EG concentrations while preventing ice formation

## CCC(C)NCC(=O)N(CC(=O)N(CC(=O)N(CC(=O)N(CC(=O)N(CC(=O)N(CC(=O)N(CC(=O)N(CC(=O)N(CC(N)=O)CC(C)O)CC(C)O)CC(C)O)C(C)CC)CC(C)O)CC(C)O)CC(C)O)CC(C)O)CC(C)O (stereo not drawn) [Compound 8, Nsb-Nhp-Nhp-Nhp-Nhp-Nhp-Nsb-Nhp-Nhp-Nhp]
[1]
  reduction of necessary EG concentration while preventing ice formation (ice ring scores): significantly reduced necessary EG concentrations while preventing ice formation

## CCC(C)NCC(=O)N(CC(=O)N(CC(=O)N(CC(=O)N(CC(=O)N(CC(=O)N(CC(=O)N(CC(=O)N(CC(=O)N(CC(N)=O)C(C)CC)C(C)CC)CC(C)O)CC(C)O)C(C)CC)C(C)CC)CC(C)O)CC(C)O)C(C)CC (stereo not drawn) [Compound 12, Nsb-Nsb-Nhp-Nhp-Nsb-Nsb-Nhp-Nhp-Nsb-Nsb]
[1]; 5 mg/mL (0.5% (w/v)) with EG 17.5% (v/v) in water, stream of liquid nitrogen vapor
  ice formation after flash freezing: ice-free
[1]; 5 mg/mL with EG 17.5% (v/v)
  anti-icing effect in comparison to EG at the same molar concentration: 500 times
[1]
  reduction of necessary EG concentration while preventing ice formation (ice ring scores): significantly reduced necessary EG concentrations while preventing ice formation
[2]; buffer, 5 mg/ml (0.5% w/v)
  vitrification on flash freezing in liquid nitrogen: complete vitrification with no ice formation; also recorded: vitrified
[2]; 100 μL, 5 mg/ml
  state after overnight in −20° C. freezer: remained unfrozen
[3]; buffer, EG 22.5% (v/v), 5 mg/mL, liquid nitrogen
  vitrification of the cell sample during the freezing process: complete vitrification without ice formation
[3]; buffer, EG 22.5% (v/v), 5 mg/mL, viability 12 hours post-thaw
  cell survival compared with EG alone: greatly improved cell survival
[3]; vitrified with liquid nitrogen, viability 16 hours post-thaw, Compound 12 at 5 mg/mL plus glycols, disaccharides, general buffer
  post-thaw survival of the cells: 98%
[4]; 0.5% w/v
  toxicity at the concentration that prevents ice formation: did not show toxicity
[4]; four times greater than 0.5% w/v
  toxicity at four times the ice-preventing concentration: did not show significant toxicity
[4]; serial dilutions, 37° C., about 3 to 5 days
  toxicity compared with culture media alone: did not significantly deviate from the that of culture media alone

## C[S+](C)[O-] [DMSO, dimethyl sulfoxide, reference compound]
[4]; 37° C.
  concentration at which warm survival for an extended period was not allowed: above 0.5 % (v/v)

## OCCO [EG, ethylene glycol]
[5]
  ice crystal formation: significant ice crystal formation
